Here are results for 10 molecules from patent US9738786B2, “Dyes for labelling molecular ligands” (ILLUMINA CAMBRIDGE LIMITED, priority 2011, dated 2017).

Holding throughout (format): physicochemical
Series [1] can be described thus: Absorption spectra of dye solutions in water. Conditions: for absorption maximum: in water.
The nature of series [2]: Fluorescence of dye solutions in water.
A short description of series [3]: Self-quenching of fluorescence with increasing dye/protein ratio (FIG. 1). Conditions: relative to dye B with six sulfonic groups.
The nature of series [4]: Spectral properties of dye 9 (ScanMix). The method, then: [drawing 69] 3 ml of acetic anhydride and 0.3 g triethylamine were heated 20 minutes at 110° C., acetic anhydride-removed under reduced pressure then the product precipitated with diethyl ether. The product was purified by HPLC. The absorption maximum of equimolar solutions in ScanMix of new dye 9 was 536 nm, 0.162 a.u.
A mixture of 0.39 g (1 mmol) of 4-ethyl-2-(2-anilino)vinyl-oxazolo[4,5-b]pyridinium iodide, 0.35 g (1 mmol) 2,3,3-trimethyl-1-(5-carboxypentyl)-3H-indolium-5-sulfonate, 3 ml of acetic anhydride and 0.13 g of sodium acetate was heated 20 minutes at 110° C. Acetic anhydride was removed under reduced pressure then the product precipitated with diethyl ether. The product was purified by flash column. […] This new dye 9 (max 583 nm, 447 a.u.) has stronger fluorescence compared with DG527 (594 nm, 401 a.u.).

A short description of series [5]: Photo-stability of dye solutions in water under irradiation.
The nature of series [6]: Stability of Dye 5A and 5B versus commercial dyes (FIG. 3).
Series [7] in a line: Stability over time (optical density of solution). Conditions: after 14 days.
The mark [8] stands for this setting: Table 1, symmetrical dyes, solutions in water.
Where [9] appears, read: in water, same optical density, excitation at 545 nm.

For `CC1(C)C(/C=C/C=C/C=C2/N(c3cccc(S(=O)(=O)O)c3)c3cc(S(=O)(=O)[O-])c4cc(S(=O)(=O)O)ccc4c3C2(C)C)=[N+](CCCCCC(=O)O)c2ccc(S(=O)(=O)O)cc21` [NR665], the absorption maximum in series [1] was found to be 664 nm. In addition, in series [2] (in water), the “fluorescence strength relative to Dy681” value is reported as “more than 3 times”. The molecule further registered a fluorescence max in series [2] (water) of 687 nm.
In the case of “1,1,3-trimethyl-3-(3-sulfophenyl)-1H-benzo[e]indolium-disulfonate [CP-13B]”, in series [2] (water), the fluorescence in water entry was “strong fluorescence”.
As for `CC[N+]1=C(/C=C/C=C/C=C2/N(CCCCCC(=O)O)c3ccc(S(=O)(=O)O)cc3C2(C)C)C(C)(C)c2cc(S(=O)(=O)[O-])ccc21` [dye A], in series [3], the “self-quenching with increasing dye concentration” value is “more readily self-quenched”.
In series [1], `CCN1/C(=C/C=C(/C=C/C2=[N+](CC)c3cc(S(=O)(=O)O)c4cc(S(=O)(=O)O)ccc4c3C2(C)C)c2ccc(C(=O)O)cc2)C(C)(C)c2c1cc(S(=O)(=O)[O-])c1cc(S(=O)(=O)O)ccc21` [Dye 6] showed an absorption maximum of 673 nm. Moreover, the relative fluorescence intensity result in series [2] is listed as “higher relative fluorescence intensity”.
As for `CC1(C)C(/C=C/C=C/C=C2/N(c3ccccc3)c3ccccc3C2(C)C)=[N+](c2ccccc2)c2ccccc21` [S0 (2), reference compound], the “Absorption max, nm” value in series [1] (setting [8]) was 649 nm. For the same molecule, in series [2] (Table 1, symmetrical dyes in water, S0 (2) = 100), the “Fluorescence intensity, %” value is reported as 100%. Also, the “Fluorescence max, nm” value in series [2] (setting [8]) came to 674 nm.
Turning to `CC[n+]1cccc2oc(/C=C/C=C/C=C3/N(CCCCCC(=O)O)c4ccc(S(=O)(=O)[O-])cc4C3(C)C)nc21` [Dye 9], in series [4], the fluorescence intensity is given as 447 a.u and the fluorescence max is 583 nm. The absorption maximum entry in series [4] (compared to laser excitation wavelength (532 nm)) is “about 536 nm”. Also, in series [4] (equimolar solutions in ScanMix), the “absorbance at absorption maximum” value turned out to be 0.162 a.u and the absorption maximum was determined as 536 nm.
Molecule `CC1(C)C(/C=C/C(=C/C=C2/N(c3cccc(S(=O)(=O)[O-])c3)c3ccc(S(=O)(=O)[O-])cc3C2(C)C)c2ccc(C(=O)O)cc2)=[N+](c2cccc(S(=O)(=O)[O-])c2)c2ccc(S(=O)(=O)[O-])cc21.[Na+].[Na+].[Na+]` [Dye 1] yielded an absorption maximum in series [1] of 658 nm. In series [5] (solution in water, after 25 days of irradiation), the “remaining initial fluorescence intensity” value was 85%. Further, the “photostability relative to Alexa 647” value in series [5] (solutions in water) is recorded as “improved photostability”.
For `CC1(C)C(/C=C/C(=C/C=C2/N(c3cccc(S(=O)(=O)O)c3)c3ccc4c(S(=O)(=O)[O-])cc(S(=O)(=O)O)cc4c3C2(C)C)c2ccc(C(=O)O)cc2)=[N+](c2cccc(S(=O)(=O)O)c2)c2ccc3c(S(=O)(=O)O)cc(S(=O)(=O)O)cc3c21` [Dye 5A], the absorption maximum in series [1] was found to be 686 nm. Moreover, in series [2], the “fluorescence intensity compared with Dy681 and Dy682” value is given as “higher”; the “shift of fluorescence maximum compared with Dy681 and Dy682” value was “red shifted”. The “stability compared with commercial dyes” value in series [6] was “better stability”.
Turning to `CCN1C(=CC=CC2=[N+](CCCCCC(=O)O)c3ccc(S(=O)(=O)O)cc3C2(C)C)C(C)(C)c2cc(S(=O)(=O)[O-])ccc21` [Cy3, reference compound], in series [2] (setting [9]), the fluorescence intensity worked out at 422 a.u and the “wavelength of fluorescence maximum” value was found to be 565 nm. Besides, the optical density remaining in series [7] worked out at 85%.
As to `CC1(C)C(/C=C/C=C2/N(c3cccc(S(=O)(=O)O)c3)c3cc(S(=O)(=O)[O-])c4cc(S(=O)(=O)O)ccc4c3C2(C)C)=[N+](CCCCCC(=O)O)c2ccc(S(=O)(=O)O)cc21` [Example XX], the absorption maximum in series [1] was determined as 567 nm.
